From a melting point compilation (Tetko et al.; mined from patent text by program, amines drawn as free bases though some values may be those of a salt)

Compound | melting point [°C]
COC(=O)C1Sc2cc(Cl)ccc2OCC1=O (configuration not stated) | 92 to 94
CC(C)(C)OC(=O)NCc1cc(N=C(N)c2cccs2)ccc1N1CCN(C(=O)CCCCC2CCSS2)CC1 (configuration not stated) | 162 to 164
Cc1ccc(-c2c(C(=O)NCc3ccccc3)oc(=O)c3ncccc23)cc1 | 208 to 209
COc1cccc2cc(C(=O)OCC(C)C)[nH]c12 | 100 to 101
CCOC(=O)c1c(CN(CCC(C)C)CCC(C)C)nc2cc(OC)c(OC)cc2c1-c1ccc(OC)c(OC)c1 | 114 to 115
COc1ccc(S(=O)(=O)Nc2ccccc2NC(=O)c2cnccc2C)cc1 | 199 to 200
O=C1CCC(=O)N1Sc1ccccc1 | 110 to 112
Cc1cc(O)n(C)c(=O)c1C#N | 285
O=c1c(-c2cccc(C(F)(F)F)c2)c[nH]n1-c1ccc(F)cc1 | 171 to 173
Cc1ccc(CCOc2ccnc3c(OCCc4ccc(C)cc4)cccc23)cc1 | 142 to 143
Cc1cccnc1C(=O)c1[nH]c2cc(Cl)ccc2c1CC(=O)O | 195 to 196
COc1ccc2c(c1)c(Cc1cc(=O)n(C3CCCCC3)[nH]1)c(C)n2Cc1ccccc1 | 102 to 105
Cn1ccnc1CCc1cc2c(cc1O)CCO2 | 190 to 191
COC(=O)CC(NCc1ccccc1)=C(C(=O)OC)C(=O)C(F)(F)F | 89.5 to 90.5
CCn1c(C(C)NS(=O)(=O)c2ccc(Cl)c(Cl)c2)cnc1Oc1ccc2cc[nH]c2c1 (configuration not stated) | 150 to 154
Cc1cnc2c(Cl)nc3cc4ccccc4cc3n12 | 221 to 223
CN(C)C(C)(C)C(N)=O | 109 to 111
CCCc1c(OCCC2Cc3cc(CC(=O)OC)ccc3O2)ccc(C(C)=O)c1O (configuration not stated) | 59 to 60
O=c1[nH][nH]c2c1c(O)nc1cc(Cl)c(Cl)cc12 | > 350
O=C(NC[C@H]1CN(c2ccc3c(c2)CCCc2cnoc2-3)C(=O)O1)C(F)F | 145 to 180
O=CN(O)C(CCO)CS(=O)(=O)c1ccc(-c2ccc(Cl)cc2)cc1 (configuration not stated) | 158 to 159
O=C(O)c1cn(C2CC2)c2c(F)c(N3CC(O)C3)c(F)cc2c1=O | 286 to 288
COc1nc2cc(Cl)ccc2nc1N1CCN(C)CC1 | 99.9 to 102
CCOC(=O)C(NC(=O)Nc1c(F)cc(F)cc1CCc1cc(C(C)(C)C)c(O)c(C(C)(C)C)c1)c1ccccc1 (configuration not stated) | 162 to 164
NC(=O)N(O)C1C=C(c2cccc(Oc3ccc(Cl)cc3)c2)CC1 (single isomer, unassigned; (+)) | 143 to 144

Compound | melting point [°C]
Cc1noc(-c2cn(-c3cccc(Br)c3)cn2)n1 | 200 to 202
Cc1ccc(Cc2cc3c(cc2/C=C/c2ccc(C(=O)O)cc2)C(C)(C)CCC3(C)C)cc1 | 216 to 217
Cc1ccccc1C1=NC(C)(C)OC1c1ccc(N(C)C)cc1 (configuration not stated) | 89 to 90
OCc1ccc(OCc2ccccc2)c(F)c1 | 56 to 57
O=C1CSC(N2CCN=C(c3ccccc3Cl)c3cc(Cl)ccc32)=N1 | 217 to 218
Cc1cc(C(=O)N(C2CCCCC2)C2CCCC2)ccc1Br | 125 to 127
CN1CCC(O)(c2cnc3ccccc3c2)CC1 | 175
Cc1ccc2c(c1)CC(n1ccnc1C(N)=O)C2=O (configuration not stated) | 196
COC(=O)c1nccnc1Oc1ccccc1C(F)(F)F | 83 to 85
CC(C)(C)c1cc(O)c(N)c([N+](=O)[O-])c1 | 180 to 181
CCC(=O)c1ccc2c(c1)C1(CC1)C(=O)N2 | 183 to 185
CCN(CCOc1cccnc1[N+](=O)[O-])CCN1C(=O)c2ccccc2C1=O | 124 to 126
CN(O)C(=O)Cc1ccc(-c2ccc(OCc3ccc4ccccc4n3)cc2)c(F)c1 | 153 to 155
CC(C)(C)OC(=O)CN1CC(c2ccccc2)CCC(N=[N+]=[N-])C1=O (configuration not stated) | 119 to 121
Cc1nc(-c2cc(Cl)ccc2Cl)n2c1nnc1cc(F)ccc12 | 186 to 190
Oc1ccnc2[nH]cc(-c3ccncn3)c12 | > 210
CC(=O)NC(NNc1ccccc1)C(=O)NCc1ccccc1 (configuration not stated) | 132 to 134
O=C(C=C(S)c1ccccc1)Nc1nc2ccccc2s1 | 168 to 172
O=C(Cn1c(-c2cccs2)ncc(NC(=O)OCc2ccccc2)c1=O)NC(Cc1ccccc1)C(=O)C(F)(F)F (configuration not stated) | 108 to 111
CCCCCCCCOc1ccc(-c2ncc(Br)cn2)cc1 | 95
CC1(C)CCSc2c(CC#Cc3ccc(O)cc3)cccc21 | 95
CCn1cc(C(c2ccc(Cl)cc2Cl)n2cncn2)c2cc(Br)ccc21 (configuration not stated) | 124 to 126
CCOC(=O)C1(C)Cc2cc(Cl)cc([N+](=O)[O-])c2O1 (configuration not stated) | 69 to 72.5
Cc1cc(-n2ccnc2)c2cccc(OCc3c(Cl)ccc(S(=O)(=O)N4CCC[C@H]4C(=O)NCCCNC(=O)c4ccc(C#N)cc4)c3Cl)c2n1 | 118
C=CCc1c(OCOC)cc(OCOC)c(C(=O)C=Cc2ccc(OCOC)cc2)c1O | 68 to 69

Compound | melting point [°C]
C[C@H](NC(=O)COCCNC(=O)c1ccc(Cl)cc1)C(=O)N[C@H](CCC(=O)OCc1ccccc1)C(N)=O | 141 to 143
CCOC(=O)c1ccccc1S(N)(=O)=O | 122 to 124
N#Cc1cnc(Nc2ccc(CCO)cc2)nc1-c1ccccc1 | 142 to 143
CCCN1CCC(c2ccc(C(=O)NC3(C(=O)NCC#N)CCCCC3)cc2)CC1 | 198 to 200
O=C(Nc1cccc2cnccc12)NC1CC2(CCOCC2)Oc2ccccc21 (configuration not stated) | 220
CCOC(=O)c1ncoc1-c1cc(OC)c(OC)c([N+](=O)[O-])c1 | 109 to 110
Cc1cc2cccc(OCCNCc3cccc(C4=CCCC4)c3)c2o1 | 133
CC/C(=C\C=C\C(O)(C(F)(F)F)C(F)(F)F)c1cccc(CCc2ccc(CO)c(CO)c2)c1 | 104
CCCC1=C(c2cccc([N+](=O)[O-])c2)C(=NO)CC1 | 128 to 129
COc1cc(Nc2nc3cccc(-c4cccc(N)c4)c3o2)cc(OC)c1OC | 145 to 170
CC(C)c1ccc2c(=O)cc(C(=O)O)[nH]c2c1 | > 240
Cc1cccc(Cl)c1C(=O)N[C@@H](Cc1ccc(-c2c(C(F)(F)F)cc(C)n(C)c2=O)cc1)C(=O)O | 220 to 223
Cc1c(CNCC(C)(C)O)n(C)c2c(C)c(NC(=O)c3ccc(OC[C@@H]4CCCO4)cc3F)ccc12 | 131 to 132
CC1(Cc2ccc3c(c2)OCCO3)CN(C(c2ccccc2)c2ccccc2)CCN1 (configuration not stated) | 144
CN(C)c1c(C#N)cnc2c(NC(=O)c3c(Cl)cccc3Cl)cccc12 | 227 to 228
CCCN(c1c2c(nc3ccccc13)CCCC2)n1cc(C)c2ccccc21 | 142 to 144
CCN(CC)C(=O)COC(=O)c1cc(S(N)(=O)=O)c(Cl)cc1NCc1ccco1 | 135 to 136
O=C1CCC(c2ccccc2F)(c2ccccc2F)[C@@H]2CN(Cc3ccccc3)C[C@H]12 (racemic) | 138
CC(C)(C)OC(=O)N1C[C@@H](CC(=O)COCC[Si](C)(C)C)[C@H]2NC(=O)[C@H]21 | 89 to 91
O=C(Nc1nnco1)C(c1ccccc1)c1ccccc1 | 131 to 132
COc1cc(C)ccc1-c1cc2ccccc2[nH]1 | 125
COc1nc2cc(Cl)ccc2nc1Cl | 92 to 95
CC(C)N(CCC(C(N)=O)(c1ccc(O)cc1)c1ccccn1)C(C)C (configuration not stated) | 148 to 151
O=C(O)c1ccc(COc2cccc(-c3c(-c4ccccc4)cnc4c(C(F)(F)F)cccc34)c2)cc1 | 108 to 112
COC(=O)c1scc(-c2ccccc2)c1-c1ccc(S(=O)O)c(F)c1 | 133

Compound | melting point [°C]
O=C(O)c1cccc(COc2ccccc2Cl)c1COc1ccccc1Cl | 107 to 109
CCOC(=O)Cn1c(=O)sc2cc(N)c(Cl)cc21 | 154 to 160
Cc1ccc(N2C(=O)C(N)=C(C(=O)c3ccc(C(C)C)cc3)C2c2ccc(OC(F)(F)F)cc2)nn1 (configuration not stated) | 258 to 260
CC1Oc2ccc(Cn3ccnc3)cc2NC1N (configuration not stated) | 152 to 156
O=C(O)Cc1cc(=O)n(Cc2ccc(Cl)cc2)c2ccccc12 | 208 to 209
CC(C)N(C(=O)CBr)C(C)C | 64 to 65.5
C[Si](C)(C)O[Si]1(O[Si](C)(C)C)O[Si](O[Si](C)(C)C)(O[Si](C)(C)C)O[Si](O[Si](C)(C)C)(O[Si](C)(C)C)O1 | 103
COC(=O)c1ccc(OCC2CN(c3ccc(NC(C)=O)cc3)C(=O)O2)cc1 (configuration not stated) | 188 to 190
Clc1ccc(-c2cc3nccc(C4CC4)n3n2)cc1 | 137 to 138
CC(=O)N1N=C(c2ccc([N+](=O)[O-])c(C)c2)c2cc3c(cc2CC1C)OCO3 (configuration not stated) | 123 to 127
Cc1ccn2c(-c3ccnc(-c4ccc(OCCN5CCCC5)cc4)c3)c(-c3cccc(C)n3)nc2c1 | 163
COc1ccc(-n2c(-c3sc(Nc4ccccc4)nc3C)nc3ccccc3c2=O)cc1 | 265 to 266
COC(=O)CCS(=O)(=O)c1ccc(C=C(C)c2ccc3c(c2)C(C)(C)CCC3(C)C)cc1 | 118 to 120
CC(C)(C)c1cc(SC2CC(=O)N(CCCCCCN3C(=O)CC(Sc4cc(C(C)(C)C)c(O)c(C(C)(C)C)c4)C3=O)C2=O)cc(C(C)(C)C)c1O (configuration not stated) | 69 to 72
COc1cc(C2(C#N)CC2)ccc1OCc1ccccc1 | 84
COc1ccc(S(=O)(=O)N(CC(N)=O)c2ccc(Cl)cc2Cc2cc(Cl)ccc2Cl)cc1OC | 200
Cc1cc(-c2nc3c(Cl)cccc3c(=O)n2-c2ccc(Br)cc2)cc(C)c1OCCO | 185 to 186
COc1ccc(-n2c(=O)c(C)nc3cccnc32)cc1 | 251 to 252
O=C(O)C(=O)c1ccc(S(=O)(=O)CCOc2ccc3ccccc3c2)cc1 | 135 to 136
CN(C)c1cccc2c(S(=O)(=O)Nc3ccc4nonc4c3)cccc12 | 106
N#Cc1cc(C(=O)NNC(=O)c2occc2-c2cccs2)ccc1O | 258 to 259
COc1cc2c(cc1OC)-c1cc(Nc3ccc(C)cc3C)nc(=O)n1CC2 | 239 to 241
